This experiment deals with Serine/threonine-protein kinase PLK3 (Homo sapiens) (UniProt Q9H4B4). Kind of experiment: PLK3 kinase inhibitors, dose response, biochemical, Z'-LYTE FRET, direct format, human (AID 1671358). To be noted: Z'-LYTE FRET kinase assay, PLK3 phosphorylation.
Sequence of Serine/threonine-protein kinase PLK3 (Homo sapiens) (Q9H4B4 whole entry, looked up): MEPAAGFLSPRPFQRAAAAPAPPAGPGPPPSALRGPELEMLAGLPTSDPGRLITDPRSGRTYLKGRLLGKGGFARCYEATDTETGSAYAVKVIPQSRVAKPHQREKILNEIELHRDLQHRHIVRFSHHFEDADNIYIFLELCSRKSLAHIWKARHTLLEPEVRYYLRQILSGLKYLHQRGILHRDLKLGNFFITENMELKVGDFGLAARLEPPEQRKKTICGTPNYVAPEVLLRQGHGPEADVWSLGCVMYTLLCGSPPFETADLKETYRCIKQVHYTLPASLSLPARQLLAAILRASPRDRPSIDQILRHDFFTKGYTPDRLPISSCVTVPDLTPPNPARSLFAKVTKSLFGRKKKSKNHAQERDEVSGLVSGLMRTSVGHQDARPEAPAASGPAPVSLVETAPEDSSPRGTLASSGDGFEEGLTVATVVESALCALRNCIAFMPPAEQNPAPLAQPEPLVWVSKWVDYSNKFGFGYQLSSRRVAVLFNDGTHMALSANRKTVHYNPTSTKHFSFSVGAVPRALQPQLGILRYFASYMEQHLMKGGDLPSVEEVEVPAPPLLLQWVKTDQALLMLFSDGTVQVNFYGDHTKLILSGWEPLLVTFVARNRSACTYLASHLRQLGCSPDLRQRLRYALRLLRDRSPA

For `Brc1c(Br)c(Br)c2n[nH]nc2c1Br`, the IC50 was 1.85 µM.

For orientation: IC50 means the concentration that inhibits the measured activity by half.

For the origin of these results see PubChem BioAssay AID1671358.
